What was measured:
Type in all cases: cell-based
KCNQ2-R213A/KCNQ3 = KCNQ2-R213A/KCNQ3 (Homo sapiens, UniProt O43525+O43526, R213A); assay: TEVC of KCNQ2-R213A/KCNQ3 channels
Source text: (§1) As previously described (12), we generated cRNA transcripts encoding human KCNA1, KCNE1, KCNE2, KCNE3, KCNQ1, KCNQ2, KCNQ3, KCNQ4 or KCNQ5 by in vitro transcription using the T7 polymerase mMessage mMachine kit (Thermo Fisher Scientific), after vector linearization, from cDNA sub-cloned into plasmids incorporating Xenopus laevis β-globin 5′ and 3′ UTRs flanking the coding region to enhance translation and cRNA stability. We quantified cRNA by spectrophotometry. We generated mutant KCNQ2 and KCNQ3 cDNAs by site-directed mutagenesis with a QuikChange kit (Stratagene, San Diego, Calif.) and prepared the cRNAs as above. We injected defolliculated stage V and VI Xenopus laevis oocytes (Ecocyte Bioscience, Austin, Tex. and Xenoocyte, Dexter, Mich., US) with KCNE and/or KCNQ cRNAs (5-20 ng). […]
(§2) We performed TEVC at room temperature using an OC-725C amplifier (Warner Instruments, Hamden, Conn.) and pClamp10 software (Molecular Devices, Sunnyvale, Calif.) 2-5 days after cRNA injection as described in the section above. […] We recorded currents in response to voltage pulses between −120 or −80 mV and +40 mV at 20 mV intervals from a holding potential of −80 mV, to yield current-voltage relationships, current magnitude, and for quantifying activation rate. We analyzed data using Clampfit (Molecular Devices) and Graphpad Prism software (GraphPad, San Diego, Calif., USA); values are stated as mean±SEM. […]

KCNQ1/KCNE2 = KCNQ1/KCNE2 (Homo sapiens, UniProt P51787); assay: TEVC of KCNQ1/KCNE2 channels
Source text: as §1, §2

KCNQ1/KCNE3 = KCNQ1/KCNE3 (Homo sapiens, UniProt P51787); assay: TEVC of KCNQ1/KCNE3 channels
Source text: as §1, §2

SMILES: CCCCCCCCC/C=C/C=O [(E)-2-dodecenal]
- effect on KCNQ2-R213A/KCNQ3 (in words) (KCNQ2-R213A/KCNQ3): completely insensitive
- effect on KCNQ1/KCNE2 (in words) (KCNQ1/KCNE2): minimal effects
- effect on KCNQ1/KCNE3 (in words) (KCNQ1/KCNE3): activated

From patent publication US12268683B2, “Compounds and methods for synergistic activation of M channels” (THE REGENTS OF THE UNIVERSITY OF CALIFORNIA, priority 2018, dated 2025)
